The source of these data is article PMC6269938, “Natural Aristolactams and Aporphine Alkaloids as Inhibitors of CDK1/Cyclin B and DYRK1A” (Molecules, 2013).

SMILES strings stand for the structures. pIC50: −log10 of the molar value. Entries after “also recorded” stand apart in the source; their conditions may differ. Read-outs that look alike come from different tables or passages of the source.

One assay concerns the target DYRK1A (Rattus norvegicus, UniProt Q63470). Put plainly: DYRK1A kinase inhibition assay. It counts as biochemical. Particulars: for DYRK1A inhibition at 30 µM, in words: concentration of 30 µM; for IC50 / DYRK1A (IC50 in μM): mean of triplicates, variation max 20%, ATP 15 µM, 30 °C. As to the method: (§1) Values were background subtracted, and activities were calculated as pmoles of phosphate incorporated during a 10 min incubation. […] Controls were performed with appropriate dilutions of DMSO.
DYRK1A (rat, recombinant, expressed in E. coli as a GST fusion protein) was purified by affinity chromatography on glutathione-agarose and assayed as described.

For a further assay, the system named is CDK1/Cyclin B. As to the kind of experiment: CDK1/Cyclin B kinase inhibition assay. It counts as biochemical, starfish (Marthasterias glacialis). As to the method:
as §1
CDK1/Cyclin B was extracted in homogenisation buffer from M phase starfish (Marthasterias glacialis) oocytes and purified by affinity chromatography on p9^CKShs1-Sepharose beads, from which it was eluted with free p9^CKShs1 as previously described. […] After a 10 min incubation at 30 °C, 25 µL aliquots of supernatant were spotted onto P81 phosphocellulose paper and treated as described above.

The subject of the next assay is CDK2. Set-up: method as in PMID 20097074, PMID 20097066. Particulars: previous studies; cited from earlier work.
The test system of a further assay is CDK4. More on the design: method as in PMID 20097074, PMID 20097066. Particulars: previous studies; cited from earlier work.
For another assay, the target named is Aurora 2 kinase. More on the design: method as in PMID 20097074, PMID 20097066. Particulars: previous studies; cited from earlier work.
Another assay relates to cancer cell. Set-up: method as in PMID 19801998. Particulars: cited from earlier work.
Assay [1] has as its system polo-box domain of Polo-like kinase 1. Set-up: method as in PMID 19801998. Particulars: cited from earlier work.
A further assay has as its system human lung cancer cells. Set-up: method as in PMID 15473647. Particulars: concentration of 20 μM; cited from earlier work.
The next assay concerns human colon cancer cells. Set-up: method as in doi:10.1016/j.procbio.2012.05.018. Particulars: cited from earlier work.
The mark [2] stands for this setting: mean of triplicates, variation max 20%, ATP 15 µM, histone H1, 30 °C.

Regarding `COc1ccc2c(c1O)-c1c(OC)c(O)cc3c1C(C2)N(C)CC3` (single isomer, unassigned; (+)) [Compound 10, (+)-N-methyllindcarpine], at DYRK1A, the “DYRK1A inhibition at 30 µM, in words” value was “inactive”. Also, the IC50 against DYRK1A and on CDK1/Cyclin B (setting [2]) was more than 30 µM throughout. In the assay on CDK1/Cyclin B (concentration of 30 µM), the “CDK1/Cyclin B inhibition at 30 µM, in words” value (shortened to “CDK1/Cyclin B inhibition”) was “inactive”.

Take `COc1c(O)cc2c3c(cc4ccc(O)cc4c13)NC2=O` [Compound 4, aristolactam AIIIA]: the “DYRK1A (IC50 in μM)” value on DYRK1A was “submicromolar”. The IC50 on DYRK1A was 0.08 µM; at CDK1/Cyclin B (setting [2]), 0.2 µM. The negative logarithm of the IC50 (pIC50) with CDK2 is 6.85; in the assay with CDK4, 5.85; on Aurora 2 kinase it was 5.67. Besides, the “cancer cell proliferation, mitotic arrest at G2/M phase, apoptosis” value in the assay with cancer cell was “could inhibit cancer cell proliferation”. Besides, in assay [1], the “ligand targeting the polo-box domain of Polo-like kinase 1” value was “new ligand”.

Consider `COc1cc2c3c(c1O)-c1c(ccc(OC)c1OC)CC3N(C)CC2` (single isomer, unassigned; (+)) [Compound 6, (+)-corydine], for which, on DYRK1A, the “DYRK1A inhibition at 30 µM, in words” value was “inactive” and the IC50 is more than 30 µM. Also, the “CDK1/Cyclin B inhibition” value with CDK1/Cyclin B (concentration of 30 µM) is “inactive”. Also, the concentration for half-maximal inhibition (IC50) against CDK1/Cyclin B (setting [2]) was more than 30 µM.

For the compound `COc1c2c3c(c(OC)c1OC)-c1ccccc1CC3NCC2` (single isomer, unassigned; (-)) [Compound 14, (−)-O-methylisopiline], on DYRK1A, the “DYRK1A inhibition at 30 µM, in words” value was “inactive” and the half-inhibitory concentration (IC50) is more than 30 µM. The “CDK1/Cyclin B inhibition” value in the assay with CDK1/Cyclin B (concentration of 30 µM) is “inactive”. Moreover, the 50% inhibitory concentration (IC50) at CDK1/Cyclin B (setting [2]) was more than 30 µM.

In the case of `COc1cc2ccnc3c2c(c1OC)-c1ccccc1C3=O` [Compound 13, lysicamine], the IC50 is 2.4 µM against DYRK1A and more than 30 µM against CDK1/Cyclin B (setting [2]). The “CDK1/Cyclin B inhibition” value with CDK1/Cyclin B (concentration of 30 µM) is on record as “unable to inhibit”; with CDK1/Cyclin B (concentration of 30 µM, listed as lysicamine (13)), “did not inhibit”.

Turning to `COc1c(O)cc2c3c(cc4ccccc4c13)NC2=O` [Compound 1, aristolactam AII], in the assay on CDK1/Cyclin B (concentration of 30 µM), the “CDK1/Cyclin B inhibition” value was “inactive”. Moreover, the IC50 on CDK1/Cyclin B (setting [2]) was more than 30 µM.

Turning to `COc1c2c(cc3c1-c1c4c(cc5c1C(C3)NCC5)OCO4)OCO2` (single isomer, unassigned; (+)) [Compound 12, (+)-11-methoxynorneolistine], in the assay with CDK1/Cyclin B, the “CDK1/Cyclin B inhibition” value is recorded as “did not inhibit; also recorded: unable to inhibit” and the 50% inhibitory concentration (IC50) is more than 30 µM.

For `COc1cc2c(cc1O)CC1c3c(cc(O)c(OC)c3-2)CCN1C` (single isomer, unassigned; (+)) [Compound 16, (+)-boldine], the “DYRK1A inhibition at 30 µM, in words” value on DYRK1A is “inactive”. Further, the IC50 against DYRK1A and at CDK1/Cyclin B (setting [2]) was more than 30 µM in each case. In addition, the “CDK1/Cyclin B inhibition” value with CDK1/Cyclin B (concentration of 30 µM) was “inactive”.

Take `COc1ccc2c(c1O)-c1c3c(cc4c1C(C2)N(C)CC4)OCO3` (single isomer, unassigned; (+)) [Compound 9, (+)-bulbocapnine]: on DYRK1A, the “DYRK1A inhibition at 30 µM, in words” value is “inactive” and the half-inhibitory concentration (IC50) was more than 30 µM. In addition, the “CDK1/Cyclin B inhibition” value with CDK1/Cyclin B (concentration of 30 µM) was “inactive”. This compound also registered a 50% inhibitory concentration (IC50) against CDK1/Cyclin B (setting [2]) of more than 30 µM.

On to `COc1cc([C@H]2OC[C@@H]3C(c4cc(OC)c(O)c(OC)c4)OC[C@H]23)ccc1O` (single isomer, unassigned; (-)) [Compound 5, (−)-medioresinol], for which, at DYRK1A, the “DYRK1A (IC50 in μM)” value was “submicromolar” and the midpoint of inhibition, the IC50, lay at 0.1 µM. At CDK1/Cyclin B (setting [2]), this compound registered an IC50 of 1.3 µM.

In the case of `O=C1c2ccccc2-c2c3c(cc4ccnc1c24)OCO3` [Compound 8, liriodenine], the results for the IC50 on DYRK1A and against CDK1/Cyclin B (setting [2]) were 3.1 µM and more than 30 µM, respectively. The “CDK1/Cyclin B inhibition” value with CDK1/Cyclin B (concentration of 30 µM) is on record as “unable to inhibit”; in the assay on CDK1/Cyclin B (concentration of 30 µM, listed as Liriodenine (8)), “did not inhibit”. Also, the “apoptosis induction by inhibiting CDK1/Cyclin B kinase activity, G2/M cell cycle arrest” value with human lung cancer cells was “induced apoptosis”. For the same compound, in the assay on human colon cancer cells, the “growth of human colon cancer cells, G1/S cell cycle arrest” value is recorded as “inhibited the growth”.

For `COc1cc2c3c(cc4c(O)cccc4c3c1OC)NC2=O` [Compound 3, velutinam], at DYRK1A, the “DYRK1A (IC50 in μM)” value is “submicromolar”. Moreover, the IC50 at DYRK1A came to 0.6 µM; on CDK1/Cyclin B (setting [2]) it was 1.5 µM.

In the case of `CN1CCc2cc3c(c4c2C1Cc1ccccc1-4)OCO3` (single isomer, unassigned; (-)) [Compound 7, (−)-roemerine], at DYRK1A, the “DYRK1A inhibition at 30 µM, in words” value was “inactive” and inhibition was half-maximal at 15 µM (IC50). Besides, in the assay on CDK1/Cyclin B (concentration of 30 µM), the “CDK1/Cyclin B inhibition” value is “unable to inhibit; also recorded: inactive”. Moreover, on CDK1/Cyclin B (setting [2]), the IC50 is more than 30 µM.

`COc1cc2c(cc1O)CC1NCCc3cc4c(c-2c31)OCO4` (single isomer, unassigned; (+)) [Compound 11, (+)-actinodaphnine]: on DYRK1A, the “DYRK1A inhibition at 30 µM, in words” value was “inactive” and the concentration for half-maximal inhibition (IC50) was more than 30 µM. Moreover, the “CDK1/Cyclin B inhibition” value in the assay with CDK1/Cyclin B (concentration of 30 µM) is “inactive”. Further, on CDK1/Cyclin B (setting [2]), the IC50 is more than 30 µM.

Regarding `COc1cc2c3c(c1OC)-c1ccccc1CC3NCC2` (single isomer, unassigned; (+)) [Compound 15, (+)-N-nornuciferine], the concentration for half-maximal inhibition (IC50) against DYRK1A was 4.2 µM; at CDK1/Cyclin B (setting [2]) it was more than 30 µM. The “CDK1/Cyclin B inhibition” value with CDK1/Cyclin B (concentration of 30 µM) is “unable to inhibit”; in the assay on CDK1/Cyclin B (concentration of 30 µM, listed as N-nornuciferine (15)), “did not inhibit”.

The term IC50 denotes the concentration at which inhibition is half-maximal. By pIC50 is commonly meant the IC50 on a negative log10 scale, so that one unit is a factor of ten.
